# Laboratory results from US5798375A, “Treatment of arteriosclerosis and xanthoma” (Sankyo Company, Limited, priority 1995, dated 1998).
# Test system: WHHL rabbits
# Assay: Example 2: aortic cholesterol content
# Format: in vivo, Male WHHL rabbits
# Method: Each test compound was administered for eight months to the rabbits in the form of an aqueous suspension (0.5% carboxymethylcellulose added). In the control group, a 0.5% carboxymethylcellulose solution only was administered.
# The aortic cholesterol content was measured The tunica media and tunica intima at the aortic arch and at the thoracic and abdominal aorta were peeled away with tweezers and cut into pieces. The pieces were extracted with a 2:1 by volume mixture of chloroform and methanol.
# The chloroform phase was separated and evaporated to dryness and the residue was dissolved in isopropanol. The total cholesterol and the free cholesterol were measured by a conventional enzymatic method.
# Data are expressed by the mean plus or minus standard error (mg/g tissue). The values in parentheses indicate the percentage against the control. A significant difference against the control group was observed by the unpaired student t-test: […]
smiles,measurement,setting,value
"CC[C@H](C)C(=O)O[C@H]1C[C@H](O)C=C2C=C[C@H](C)[C@H](CC[C@@H](O)C[C@@H](O)CC(=O)O)[C@H]21 [Pravastatin, sodium 1,2,6,7,8,8a-hexahydro-6,8-tetrahydroxy-2-methyl-1-naphthaleneheptanoate]","Cholesterol level of Thoracic and Abdominal Aorta, Esterified","mean ± standard error, control 5.3 ± 1.7",4.7 ± 0.7 mg/g tissue
same,"Cholesterol Content of Aortic Arch, Esterified","mean ± standard error, control 6.5 ± 1.4, *p < 0.05",6.4 ± 1.1 mg/g tissue
same,"Cholesterol level of Thoracic and Abdominal Aorta, Free","mean ± standard error, control 14.8 ± 2.3, *p < 0.05 vs control",12.5 ± 1.3 mg/g tissue
same,"Cholesterol level of Thoracic and Abdominal Aorta, Total","mean ± standard error, control 20.1 ± 2.3, *p < 0.05, **p < 0.02 vs control",17.2 ± 1.6 mg/g tissue
same,"Cholesterol Content of Aortic Arch, Free","mean ± standard error, control 20.6 ± 2.9",18.6 ± 4.4 mg/g tissue
same,"Cholesterol Content of Aortic Arch, Total","mean ± standard error, control 27.1 ± 3.3",24.9 ± 5.2 mg/g tissue
same,"Cholesterol Content of Aortic Arch, Esterified, percentage against the control",number in parentheses,98%
same,"Cholesterol Content of Aortic Arch, Free, percentage against the control",number in parentheses,90%
same,"Cholesterol Content of Aortic Arch, Total, percentage against the control",number in parentheses,92%
same,"Cholesterol level of Thoracic and Abdominal Aorta, Esterified, percentage against the control",number in parentheses,89%
same,"Cholesterol level of Thoracic and Abdominal Aorta, Free, percentage against the control",number in parentheses,84%
same,"Cholesterol level of Thoracic and Abdominal Aorta, Total, percentage against the control",number in parentheses,86%
